Experimental data: patent US20220298115A1, “SMALL MOLECULE INHIBITORS OF ACETYL COENZYME A SYNTHETASE SHORT CHAIN 2 (ACSS2)” (Curadev Pharma Pvt. Ltd., priority 2019, published 2022)
pIC50: −log10 of the molar value.

Experiments:
[1] = target: T1, human ACSS2 (Homo sapiens, UniProt Q9NR19); test: ACSS2 enzyme assay (acetyl-CoA formation, LC-MS/MS); type: biochemical; conditions: cytosolic fraction of BT474 cells as ACSS2 source; 100 μM acetate, CoA and ATP; 2 h at 25° C.; read-out: Enzyme Activity (IC50 range)
T1 construct: The cytosolic fraction of BT474 cells was used as a source of the ACSS2 enzyme; endogenous in cells; host or cells: BT474 cells (cytosolic fraction)
Procedure: Novel compounds were screened in a human ACSS2 enzyme assay. Briefly, the ACSS2 enzyme reaction was monitored by directly measuring acetyl-CoA formation. The cytosolic fraction of BT474 cells was used as a source of the ACSS2 enzyme. A short protocol for this assay is provided below.
Preparation of Cytosolic Fraction from BT474 Cells
9×10^6 cells were harvested by trypsinization followed by centrifugation. The cell pellet was washed with PBS and dissolved in 500 μl STM buffer (50 mM Tris-HCl pH7.4, 250 mM sucrose, 5 mM MgCl2 & protease-phosphatase inhibitor cocktail) and homogenized at 600-1000 rpm for 1 min. on ice followed by incubation for 30 min. with intermittent vortexing. Supernatant was collected by centrifugation at 800 g for 15 min. at 4° C. Cytosolic fraction was prepared by further centrifugation of the supernatant at 12000 g for 15 min. at 4° C. Total protein content of the cytosolic fraction was estimated & diluted to 1 mg/ml concentration in storage buffer (25 mM Tris-HCl pH7.4, 1 mM MgCl2, 1 mM DTT & 10% glycerol) and stored at −80° C. for further use.
100 ng of cytosolic fraction in buffer composed of 25 mM Tris-HCl pH7.4 1 mM MgCl2, 1 mM DTT & 0.05% Tween20 was preincubated with desired concentrations of novel compounds for 5 min. maintaining 1% DMSO. Reaction was started with addition of substrate mix (100 μM of acetate, CoA and ATP) and incubated for 2 h at 25° C. with constant shaking at 500 rpm. Post incubation the reaction was terminated by addition of 10% TCA followed by 5 fold dilution in water. The reaction mixture was centrifuged at 800 g for 10 min. at RT and acetyl-CoA detected in supernatant by LC-MS/MS (QTrap5500 ABSCIEX).

[2] = test system: [14C] acetate incorporation in macromolecules, BT474 cells; test: Cell based [14C] acetate incorporation assay; conditions: Homo sapiens, BT-474, 3 h at 37° C., read-out: Cellular Activity (IC50 range)
Procedure: Cell Based [^14C] Acetate Incorporation Assay
In the cellular assay, ACSS2 inhibitors were screened against [^14C] acetate incorporation in macromolecules. 4×10^4 BT474 cells were plated in 96 well plates in growth media composed of DMEM & 10% FBS and incubated overnight in a 37° C., 5% CO2 incubator. The following day the cells were washed in HBSS and the assay was performed in 100 μl of HBSS. 50 μl of 4× compound in 4% DMSO was added to the cells and preincubated for 10 min. at 37° C. 50 μl of acetate solution (0.1 μCi ^14C acetate+10 μM ^12C acetate) was added to each well of the plate and incubated for 3 h in a 37° C., 5% CO2 incubator. Following incubation, cells were harvested with water on polyethylene imine (PEI) presoaked GF/C filtermat, air dried and radioactive count were recorded in Trilux micro beta Liquid Scintillation Counter (PerkinElmer).

T1 sequence (Q9NR19 whole entry): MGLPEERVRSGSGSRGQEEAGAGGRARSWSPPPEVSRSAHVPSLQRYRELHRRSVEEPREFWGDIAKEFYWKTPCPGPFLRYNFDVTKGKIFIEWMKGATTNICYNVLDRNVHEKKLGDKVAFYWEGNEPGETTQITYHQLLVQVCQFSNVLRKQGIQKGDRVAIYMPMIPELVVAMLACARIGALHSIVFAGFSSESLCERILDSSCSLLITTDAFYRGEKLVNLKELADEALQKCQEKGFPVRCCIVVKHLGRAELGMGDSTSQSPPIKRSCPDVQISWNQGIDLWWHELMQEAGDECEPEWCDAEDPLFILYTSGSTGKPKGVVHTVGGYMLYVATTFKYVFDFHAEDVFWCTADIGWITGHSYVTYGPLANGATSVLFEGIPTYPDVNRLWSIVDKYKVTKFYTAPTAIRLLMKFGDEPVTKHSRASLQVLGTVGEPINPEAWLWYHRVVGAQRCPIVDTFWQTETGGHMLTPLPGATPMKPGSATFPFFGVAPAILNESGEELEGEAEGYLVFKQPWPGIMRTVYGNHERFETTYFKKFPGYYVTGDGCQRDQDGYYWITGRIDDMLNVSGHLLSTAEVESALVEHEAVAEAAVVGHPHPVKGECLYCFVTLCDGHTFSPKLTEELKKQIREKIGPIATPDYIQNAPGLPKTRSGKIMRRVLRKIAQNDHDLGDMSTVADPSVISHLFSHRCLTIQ

Compound	pIC50 [1]	pIC50 [2]
O=C(Nc1ccccc1)Nc1ccc2nc(-c3ccccc3)c(-c3ccccc3)cc2c1 [Example 140, 1-(2,3-diphenylquinolin-6-yl)-3-phenylurea]	< 5.00	< 5.00
CCC(O)CNC(=O)Nc1ccc2nc(-c3cccc(F)c3)c(-c3cccc(F)c3)cc2c1 (stereo not shown) [Example 25, 1-(2,3-bis(3-fluorophenyl)quinolin-6-yl)-3-(2-hydroxybutyl) urea]	≥ 6.00	≥ 6.00
COCCNC(=O)Nc1ccc2nc(C)c(-c3ccccc3)cc2c1 [Example 78, 1-(2-methoxyethyl)-3-(2-methyl-3-phenylquinolin-6-yl)urea]	≥ 6.00	≥ 6.00
CCC(O)CNC(=O)Nc1ccc2nc(-c3cccnc3OC)c(-c3cccnc3OC)cc2c1 (stereo not shown) [Example 13, 1-(2,3-bis(2-methoxypyridin-3-yl)quinolin-6-yl)-3-(2-hydroxybutyl) urea]	≥ 6.00	≥ 6.00
Cn1cc(NC(=O)Nc2ccc3nc(-c4ccccc4)c(-c4ccccc4)cc3c2)cn1 [Example 144, 1-(2,3-diphenylquinolin-6-yl)-3-(1-methyl-1H-pyrazol-4-yl)urea]	≥ 6.00	> 7.00
CN1CCC(NC(=O)Nc2ccc3nc(-c4ccccc4)c(-c4ccccc4)cc3c2)C1 (stereo not shown) [Example 141, 1-(2,3-diphenylquinolin-6-yl)-3-(1-methylpyrrolidin-3-yl)urea]	≥ 5.00	< 5.00
CCC(O)CNC(=O)Nc1ccc2nc(C3=CCCCC3)c(-c3ccccc3F)cc2c1 (stereo not shown) [Example 32, 1-(2-(cyclohex-1-en-1-yl)-3-(2-fluorophenyl)quinolin-6-yl)-3-(2-hydroxybutyl) urea]	≥ 6.00	≥ 6.00
C=CCNC(=O)Nc1ccc2nc(-c3ccccc3)c(-c3ccccc3)cc2c1 [Example 134, 1-allyl-3-(2,3-diphenylquinolin-6-yl)urea]	≥ 6.00	≥ 6.00
CCC(=O)CCC(=O)Nc1ccc2nc(-c3ccccc3)c(-c3ccccc3)cc2c1 [Example 125, N-(2,3-diphenyl-quinolin-6-yl)-4-oxohexan-amide]	> 7.00	> 7.00
CC[C@@H](O)CNC(=O)Nc1ccc2nc(-c3ccccc3)c(C)c(C(=O)Nc3ccn(C)n3)c2c1 [Example 115, (R)-6-(3-(2-Hydroxybutyl)ureido)-3-methyl-N-(1-methyl-1H-pyrazol-3-yl)-2-phenylquinoline-4-carboxamide]	> 7.00	≥ 6.00
CC[C@H](O)CNC(=O)Nc1ccc2nc(-c3ccccc3)c(-c3ccccc3)cc2c1 [Example 30, (S)-1-(2,3-diphenylquinolin-6-yl)-3-(2-hydroxybutyl) urea]	> 7.00	> 7.00
CCC(O)CNC(=O)Nc1ccc2nc(C)c(-c3ccccc3)c(NC(C)=O)c2c1 (stereo not shown) [Example 93, N-(6-(3-(2-hydroxybutyl)ureido)-2-methyl-3-phenylquinolin-4-yl)acetamide]	> 7.00	≥ 6.00
CCC(O)CNC(=O)Nc1ccc2nc(-c3ccc(-c4ccccc4)cc3)c(-c3ccccc3)cc2c1 (stereo not shown) [Example 55, 1-(2-([1,1′-biphenyl]-4-yl)-3-phenylquinolin-6-yl)-3-(2-hydroxybutyl) urea]	≥ 5.00	< 5.00
CCC(O)CNC(=O)Nc1ccc2nc(-c3ccnc(OC)c3)c(-c3ccnc(OC)c3)cc2c1 (stereo not shown) [Example 9, 1-(2,3-bis(2-methoxypyridin-4-yl)quinolin-6-yl)-3-(2-hydroxybutyl) urea]	< 5.00	≥ 5.00

Other lines, results leading:

pIC50 [1]	pIC50 [2]	Compound
> 7.00	≥ 6.00	CCC(O)CCC(=O)Nc1ccc2nc(C)c(-c3ccccc3)cc2c1 (stereo not shown) [Example 130, 4-hydroxy-N-(2-methyl-3-phenyl-quinolin-6-yl)hexan-amide]
> 7.00	> 7.00	CCC(O)CNC(=O)Nc1ccc2nc(-c3ccccc3F)c(-c3ccccc3OC)cc2c1 (stereo not shown) [Example 26, 1-(2-(2-fluorophenyl)-3-(2-methoxyphenyl)quinolin-6-yl)-3-(2-hydroxybutyl) urea]
> 7.00	> 7.00	CC[C@@H](O)CNC(=O)Nc1ccc2nc(-c3ccccc3)c(-c3ccccc3)c(NC(=O)C3CC3)c2c1 [Example 92, (R)-N-(6-(3-(2-hydroxybutyl)ureido)-2,3-diphenylquinolin-4-yl)cyclopropane-carboxamide]
> 7.00	> 7.00	CCC(O)CNC(=O)Nc1ccc2nc(C)c(-c3ccccc3)cc2c1C1CC1 (stereo not shown) [Example 86, 1-(5-cyclopropyl-2-methyl-3-phenylquinolin-6-yl)-3-(2-hydroxybutyl) urea]
> 7.00	> 7.00	CCC(O)CNC(=O)Nc1ccc2nc(C)c(-c3ccccc3)cc2c1Br (stereo not shown) [Example 87, 1-(5-bromo-2-methyl-3-phenylquinolin-6-yl)-3-(2-hydroxybutyl) urea]
> 7.00	> 7.00	CC[C@@H](O)CNC(=O)Nc1ccc2nc(C)c(-c3ccccc3)cc2c1-c1cnn(C)c1 [Example 96, (R)-1-(2-hydroxybutyl)-3-(2-methyl-5-(1-methyl-1H-pyrazol-4-yl)-3-phenylquinolin-6-yl)urea]
> 7.00	> 7.00	CCC(=O)CCC(=O)Nc1ccc2nc(-c3ccccc3OC)c(-c3ccccc3)cc2c1 [Example 120, N-(2-(2-methoxy-phenyl)-3-phenyl-quinolin-6-yl)-4-oxohexan-amide]
> 7.00	> 7.00	CCC(O)CNC(=O)Nc1ccc2nc(C)c(-c3ccccc3Cl)cc2c1 (stereo not shown) [Example 81, 1-(3-(2-chlorophenyl)-2-methylquinolin-6-yl)-3-(2-hydroxybutyl) urea]
> 7.00	> 7.00	CC[C@@H](O)CNC(=O)Nc1ccc2nc(-c3ccccc3OC)c(-c3ccccc3F)cc2c1 [Example 35, (R)-1-(3-(2-fluorophenyl)-2-(2-methoxyphenyl)quinolin-6-yl)-3-(2-hydroxybutyl) urea]
> 7.00	> 7.00	CCC(O)CNC(=O)Nc1ccc2nc(-c3ccccc3OC)c(-c3ccccc3OC)cc2c1 (stereo not shown) [Example 6, 1-(2,3-bis(2-methoxyphenyl)quinolin-6-yl)-3-(2-hydroxybutyl) urea]
> 7.00	> 7.00	CCC(O)CNC(=O)Nc1ccc2nc(-c3ccc(F)cc3)c(-c3ccc(F)cc3)cc2c1 (stereo not shown) [Example 17, 1-(2,3-bis(4-fluorophenyl)quinolin-6-yl)-3-(2-hydroxybutyl) urea]
> 7.00	> 7.00	CCC(O)CNC(=O)Nc1ccc2nc(C)c(-c3ccccc3F)cc2c1 (stereo not shown) [Example 75, 1-(3-(2-fluorophenyl)-2-methylquinolin-6-yl)-3-(2-hydroxybutyl) urea]
> 7.00	> 7.00	COC1CCN(C(=O)Nc2ccc3nc(-c4ccccc4)c(-c4ccccc4)cc3c2)C1 (stereo not shown) [Example 138, N-(2,3-diphenylquinolin-6-yl)-3-methoxypyrrol-idine-1-carboxamide]
> 7.00	> 7.00	CCCCNC(=O)Nc1ccc2nc(-c3ccccc3OC)c(-c3ccccc3F)cc2c1 [Example 37, 1-butyl-3-(3-(2-fluorophenyl)-2-(2-methoxyphenyl)quinolin-6-yl)urea]
> 7.00	> 7.00	CCC(O)CNC(=O)Nc1ccc2nc(-c3ccccc3)c(-c3ccccc3F)cc2c1 (stereo not shown) [Example 7, 1-(3-(2-fluorophenyl)-2-phenylquinolin-6-yl)-3-(2-hydroxybutyl) urea]
> 7.00	> 7.00	CCC(O)CNC(=O)Nc1ccc2nc(-c3ccccc3)c(-c3ccccc3)c(N)c2c1 (stereo not shown) [Example 95, 1-(4-Amino-2,3-diphenylquinolin-6-yl)-3-(2-hydroxybutyl)urea]
> 7.00	> 7.00	CCC(=O)CCC(=O)Nc1ccc2nc(-c3ccccc3F)c(-c3ccccc3F)cc2c1 [Example 124, N-(2,3-Bis(2-fluorophenyl)quinolin-6-yl)-4-oxohexanamide]
> 7.00	> 7.00	CCC(O)CNC(=O)Nc1ccc2nc(-c3ccccc3)c(-c3ccccc3)c(NC(C)=O)c2c1 (stereo not shown) [Example 84, N-(6-(3-(2-hydroxybutyl)ureido)-2,3-diphenylquinolin-4-yl)acetamide]
